# Measured values reported in patent publication EP0452507A1, “MEDICINE COMPRISING TOCOPHERYL GLYCOSIDE AS ACTIVE INGREDIENT” (NIPPON HYPOX LABORATORIES INCORPORATED, priority 1989, dated 1991).
# Assays:
# [1] = system: delayed-type hypersensitivity; assay: picryl chloride-induced delayed-type hypersensitivity, ear swelling ratio; assay type: in vivo, mice; conditions: for swelling ratio (ear): versus Control group
# Procedure: 76 Male mice (C57BU6Ncrj) weighing 18 to 20 g were used. The abdominal portion of each mouse was shaved such that the shaved portion was about 1 cm^2. Thereafter, 20 µl of an ethanol solution of 7 % picryl chloride was applied to the shaved portions for sensitization.
# Eighteen out of the 76 mice were used as Control group. A physiological saline solution containing 10 % Nikkol (Nikkol: trade name, dissolving aid, supplied by Nikko Chemical Co., Ltd.) was administered intraperitoneally to the 18 mice for the consecutive 5 days after the sensitization, and ear thickness of each of these 18 mice was measured on the eighth day after the sensitization. Thereafter, 20 µl of an olive oil solution of 1 % picryl chloride was applied to the ear of each of the mice to cause delayed-type hypersensitivity.
# The above pharmaceutical solutions were administered intraperitoneally at the above-described doses for the five consecutive days after the sensitization, and ear thickness of each of these mice was measured on the eighth day after the sensitization. Thereafter, 20 µl of an olive oil solution of 1 % picryl chloride was applied to the ear of each of the mice to cause delayed-type hypersensitivity.
# 24 Hours after the delayed-type hypersensitivity was induced, the swelling of the ear of each of the mice of Control group and Example groups ①, ②and③ was measured with a dial thickness gauge. On the basis of the values of the ear thickness measured before the application of the olive oil solution of 1 % picryl chloride, the swelling ratio of each of Example groups ①, ② and ③ and Control group was determined.
# And, the swelling ratio of the mice was determined.
# At first, the abdominal portion of each of forty ICR male mice weighing 20 to 25 g was shaved such that the shaved portion was about 1 cm^2. Thereafter, 20 µl of an ethanol solution of 7 % picryl chloride was applied to the shaved portions for sensitization.
# [2] = system: adjuvant arthritis; assay: adjuvant arthritis (Freund's complete adjuvant), right hind paw swelling by volumetry; assay type: in vivo, rats; conditions: Example 6, Fig. 5; for inhibition activity against acute inflammation (before the 14th day) and adjuvant arthritis (after 17th day): VIE-MAN 10 and 30 mg/kg/day, depending upon the dose, indomethacin 10 mg/kg/day, intraperitoneally
# Procedure: 24 male SD rats weighing 180 to 220 g were used, and measured for a size of the subplantar region of the right hind paw. As a substance to cause adjuvant arthritis, 0.05 ml/rat of Freund's complete adjuvant [ADJUVANT COMPLETEFREUND, trade name, supplied by Difco] was used.
# Then, the above Freund's complete adjuvant was administered intracutaneously into the subplantar region of right hind paw of each rat, and 24 hours after the administration, the swelling on the right hind paw of each rat was measured by volumetry to determine a swelling ratio. The above rats were separated into four groups each consisting of 6 rats such that the average swelling ratio of one group was nearly equal to that of another group.
# Thereafter, one out of the four groups was used as Control group. A physiological saline solution of 10 % Nikkol was administered intraperitoneally to each rat of this group for the consecutive 22 days after the group separation, and the swelling on the right hind paw was measured by volumetry every day after the administration of the physiological saline solution of 10 % Nikkol. The average of swelling ratios as a group for each day was determined on the basis of the values of the sizes of the subplantar regions of the right hind paws obtained by the measurement prior to the administration of the Freund's complete adjuvant.
# The procedure for Control group was repeated except that a physiological saline solution of 10 % Nikkol containing VIE-MAN in place of the physiological saline solution of 10 % Nikkol was administered intraperitoneally in such a dose that the amount of VIE-MAN was 10 mg/kg/day.
# The procedure for Control group was repeated except that a physiological saline solution of 10 % Nikkol containing VIE-MAN in place of the physiological saline solution of 10 % Nikkol was administered intraperitoneally in such a dose that the amount of VIE-MAN was 30 mg/kg/day.
# The remaining one group was used as Comparative Example group ⓕ. The procedure for Example groups @ and @ was repeated except that a physiological saline solution of 10 % Nikkol containing indomethacin which was a nonsteroidal anti-inflammatory preparation (antipyretic analgesic antiphlogistic preparation) in place of the physiological saline solution of 10 % Nikkol was administered intraperitoneally in such a dose that the amount of the indomethacin was 10 mg/kg/day, and the average of swelling ratios as a group was determined.
# [3] = system: carrageenin-induced inflammation; assay: carrageenin-induced inflammation, right hind paw swelling by volumetry; assay type: in vivo, rats; conditions: Example 7, Fig. 6; for inhibition activity against carrageenin-induced inflammation: VIE-MAN 10, 30, 100 mg/kg, depending upon its dose, comparators 10 mg/kg, intraperitoneally
# Procedure: Six groups each consisting of five male SD rats weighing 180 to 220 g were used (total 30 rats), and each rat was measured for a size of the subplantar region1 of the right hind paw.
# In order to induce carrageenin-induced inflammation, 0.1 ml/rat of a physiological saline solution of 1 % X-carrageenin was prepared.
# One out of the six groups was used as Control group. A physiological saline solution of 10 % Nikkol was administered intraperitoneally to each rat of this group, and 0.5 hours after the administration of the physiological saline solution of 10 % Nikkol, 0.1 ml of the physiological saline solution of 1 % X-carrageenin was administered intracutaneously into the subplantar region of the right hind paw of each rat. Then, 0.5, 1, 2, 3 and 4 hours after the administration of […] of the physiological saline solution of 1 % X-carrageenin, the swelling on the subplantar region of the right hind paw of each rat was measured by volumetry, arid the average of swelling ratios of the group in every measurement was determined on the basis of the measurement values of the sizes of subplantar regions of the right hind paws of the rats obtained before the administration of the physiological saline solution of 10 % Nikkol solution.
# The procedure for Control group was repeated except that a physiological saline solution of 10 % Nikkol containing VIE-MAN in place of the physiological saline solution of 10 % Nikkol was administered intraperitoneally in such a dose that the amount of VIE-MAN was 10 mg/kg.
# The procedure for Control group was repeated except that a physiological saline solution of 10 % Nikkol containing VIE-MAN in place of the physiological saline solution of 10 % Nikkol was administered intraperitoneally in such a dose that the amount of VIE-MAN was 30 mg/kg.
# The procedure for Control group was repeated except that a physiological saline solution of 10 % Nikkol containing VIE-MAN in place of the physiological saline solution of 10 % Nikkol was administered intraperitoneally in such a dose that the amount of VIE-MAN was 100 mg/kg.
# (§1) The procedure for Example groups ⑭, ⑮ and ⑯ was repeated except that a physiological saline solution of 10 % Nikkol containing cortisone acetate which was a steroidal anti-inflammatory preparation (immunosuppressive preparation) in place of the physiological saline solution of 10 % Nikkol containing VIE-MAN was administered intraperitoneally in such a dose that the amount of the cortisone acetate was 10 mg/kg.
# as §1, with “indomethacin” for “cortisone acetate”, “nonsteroidal” for “steroidal”, “(antipyretic analgesic antiphlogistic” for “(immunosuppressive”
# [4] = Example 2, Fig. 2, ICR male mice, 100 mg/kg/day intraperitoneally
# [5] = Example 2, ICR mice, 100 mg/kg/day intraperitoneally
SMILES,"swelling ratio (ear) [1, 4]","side effects such as a reduction in body weight [1, 5]","average of the swelling ratios ([2]; 10 and 30 mg/kg/day intraperitoneally for 22 days, versus Control group)",inhibition activity against acute inflammation (before the 14th day) and adjuvant arthritis (after 17th day) [2],"average of swelling ratios ([3]; 10, 30 and 100 mg/kg intraperitoneally, 0.5 hour after administration of 1 % carrageenin solution, versus Control group)",inhibition activity against carrageenin-induced inflammation [3],"delayed-type hypersensitivity prevented and cured ([1]; Example 1, Fig. 1, 10, 30 and 100 mg/kg/day intraperitoneally)","swelling ratio (ear) ([1]; Example 1, Fig. 1, C57BU6Ncrj mice, 10, 30 and 100 mg/kg/day intraperitoneally for 5 days after sensitization, 24 hours after induction)","preventive and therapeutical effect on delayed-type hypersensitivity (comparison) ([1]; Example 1, Fig. 1, VIE-MAN 10, 30, 100 mg/kg/day versus methotrexate 1 mg/kg/day, intraperitoneally)","side effects such as a reduction in body weight ([1]; Example 1, mice, 10, 30 and 100 mg/kg/day intraperitoneally for 5 days)",activity against acute inflammation and adjuvant arthritis compared with VIE-MAN ([2]; indomethacin 10 mg/kg/day intraperitoneally),inhibition activity against carrageenin-induced inflammation compared with VIE-MAN ([3]; comparators 10 mg/kg intraperitoneally)
"Cc1c(C)c2c(c(C)c1OC1OC(CO)C(O)C(O)C1O)CCC(C)(CCCC(C)CCCC(C)CCCC(C)C)O2 (racemic) [VIE-GLU, dl-α-tocopheryl-,8-D-glucoside]",significantly lower than that of Control group,not observed,–,–,–,–,–,–,–,–,–,–
"Cc1c(C)c2c(c(C)c1OC1OC(CO)C(O)C(O)C1O)CCC(C)(CCCC(C)CCCC(C)CCCC(C)C)O2 (racemic) [VIE-MAN, dl-a-tocopheryl-a-D-mannoside]",significantly lower than that of Control group,not observed,significantly lower than that of the swelling ratios of Control group,excellent inhibition activity,significantly lower than that of swelling ratios of Control group,excellent inhibition activity,dose-dependently prevented and cured,significantly lower than that of Control group,superior to methotrexate,not observed,–,–
"COc1ccc2c(c1)c(CC(=O)O)c(C)n2C(=O)c1ccc(Cl)cc1 [indomethacin, reference compound]",–,–,–,showed inhibitory activity against both acute inflammation and adjuvant arthritis,–,significant activity at and after 0.5 hour,–,–,–,–,much lower than that of VIE-MAN,lower than that of VIE-MAN
